These results are taken from patent US4382089A, “Antibacterial amide compounds, compositions thereof and methods of using them” (Warner-Lambert Company, priority 1982, dated 1983).

Test in all cases: Antibacterial activity in vitro, Minimal Inhibitory Concentration
Holding throughout (format): cell-based

For one test, the system named is Entero C. IMM-11. From the text: (§1) The compounds of the invention are new chemical compounds that are used as pharmacological agents and especially as broad spectrum antibacterial agents. They are active in vitro against strains of both gram-positive and gram-negative bacteria. The activity of the compounds is illustrated by the results shown in the table for certain of the preferred compounds.

A further test has as its system Klebs. Pneu. MGH-2.
Source text: as §1

The subject of another test is Serr. Mar. IMM-16.
Source text: as §1

Another test deals with Prot. Vulg. 1810.
Source text: as §1

The test system of a further test is E. Coli Vogel.
Source text: as §1

The next test concerns Pseudo. Aeru BRK.
Source text: as §1

Another test has as its system Pseudo. Aeru 28.
Source text: as §1

A further test relates to Staph Aureus UC-76.
Source text: as §1

The subject of another test is Pseudo. Aeru UI-18.
Source text: as §1

A further test concerns E. Coli Brig.
Source text: as §1

With “N-[(-[[2-(Acetylamino)-1-oxopropl]amino]-1,4-dihydro-4-oxo-3-quinolinylcarbonyl]amoxicillin”, the “Minimal Inhibitory Concentration” value in the test on Entero C. IMM-11 came out at 12.5 µg/mL; in the test on Klebs. Pneu. MGH-2, 12.5 µg/mL; in the test on Serr. Mar. IMM-16, 12.5 µg/mL; in the test with Prot. Vulg. 1810 it was 3.1 µg/mL; in the test with E. Coli Vogel, 3.1 µg/mL; in the test with Pseudo. Aeru BRK it was 3.1 µg/mL. The “Minimal Inhibitory Concentration” value was 0.8 µg/mL in the test on Pseudo. Aeru 28, 1.6 µg/mL with Staph Aureus UC-76, “.1 µg/mL” in the test on Pseudo. Aeru UI-18 and 12.5 µg/mL in the test with E. Coli Brig.

Take `CC(=O)N1CCCC1C(=O)Nc1ccc2[nH]cc(C(=O)NC(C(=O)NC3C(=O)N4C3SC(C)(C)C4C(=O)O)c3ccc(O)cc3)c(=O)c2c1` (centres unmarked) [N-[6-[[(1-Acetyl-2-pyrrolidinyl)carbonyl]amino]-1,4-dihydro-4-oxo-3-quinolinylcarbonyl]amoxicillin]: the “Minimal Inhibitory Concentration” value worked out at 6.3 µg/mL in the test with Entero C. IMM-11; 6.3 µg/mL with Klebs. Pneu. MGH-2; 6.3 µg/mL with Serr. Mar. IMM-16; 0.8 µg/mL with Prot. Vulg. 1810; 0.2 µg/mL in the test with E. Coli Vogel; 3.1 µg/mL in the test on Pseudo. Aeru BRK. In addition, the “Minimal Inhibitory Concentration” value in the test on Pseudo. Aeru 28 is 3.1 µg/mL; in the test with Staph Aureus UC-76 it was 3.1 µg/mL; in the test on Pseudo. Aeru UI-18, 3.1 µg/mL; with E. Coli Brig, 6.3 µg/mL.

Consider `CC(=O)NC(C)C(=O)Nc1ccc2[nH]cc(C(=O)NC(C(=O)NC3C(=O)N4C3SC(C)(C)C4C(=O)O)c3ccc(O)cc3)c(=O)c2c1` (centres unmarked) [N-[6-[[2-(Acetylamino)-1-oxopropyl]amino]-1,4-dihydro-4-oxo-3-quinolinylcarbonyl]amoxicillin], for which the “Minimal Inhibitory Concentration” value with Entero C. IMM-11 is 3.1 µg/mL; with Klebs. Pneu. MGH-2, 6.3 µg/mL; in the test on Serr. Mar. IMM-16 it was 3.1 µg/mL; in the test with Prot. Vulg. 1810, 0.8 µg/mL; in the test on E. Coli Vogel it was 0.4 µg/mL; in the test on Pseudo. Aeru BRK, 1.6 µg/mL. Moreover, the “Minimal Inhibitory Concentration” value in the test with Pseudo. Aeru 28 amounted to 0.4 µg/mL; with Staph Aureus UC-76, 1.6 µg/mL; in the test on Pseudo. Aeru UI-18, 1.6 µg/mL; with E. Coli Brig, 3.1 µg/mL.

For the compound `CC(=O)NC(C)C(=O)Nc1ccc2[nH]c(=O)c(C(=O)NC(C(=O)NC3C(=O)N4C3SC(C)(C)C4C(=O)O)c3ccc(O)cc3)cc2c1` (centres unmarked) [N-[6-[[(2-Acetylamino)-1-oxopropyl]amino]-1,2-dihydro-2-oxo-3-quinolinylcarbonyl]amoxicillin], the “Minimal Inhibitory Concentration” value in the test on Entero C. IMM-11 stood at 6.3 µg/mL; in the test with Klebs. Pneu. MGH-2 it was 12.5 µg/mL; with Serr. Mar. IMM-16 it was 12.5 µg/mL; in the test on Prot. Vulg. 1810 it was 3.1 µg/mL; in the test on E. Coli Vogel, 1.6 µg/mL; with Pseudo. Aeru BRK it was 1.6 µg/mL. The “Minimal Inhibitory Concentration” value in the test on Pseudo. Aeru 28 is 1.6 µg/mL; with Staph Aureus UC-76 it was 1.6 µg/mL; with Pseudo. Aeru UI-18, 1.6 µg/mL; in the test with E. Coli Brig it was 6.3 µg/mL.

For the compound `CC1(C)SC2C(NC(=O)C(NC(=O)c3c[nH]c4c(NC(=O)C5CCC(=O)N5)cccc4c3=O)c3ccc(O)cc3)C(=O)N2C1C(=O)O` (centres unmarked) [N-[1,4-Dihydro-4-oxo-8-[[(5-oxo-2-pyrrolidinyl)carbonyl]-amino]-3-quinolinylcarbonyl]amoxicillin], the “Minimal Inhibitory Concentration” value was found to be 6.3 µg/mL in the test with Entero C. IMM-11; 12.5 µg/mL in the test with Klebs. Pneu. MGH-2; 12.5 µg/mL in the test with Serr. Mar. IMM-16; 3.1 µg/mL in the test on Prot. Vulg. 1810; 3.1 µg/mL in the test on E. Coli Vogel; 1.6 µg/mL with Pseudo. Aeru BRK. The “Minimal Inhibitory Concentration” value stood at 0.8 µg/mL with Pseudo. Aeru 28, 1.6 µg/mL in the test with Staph Aureus UC-76, 3.1 µg/mL in the test on Pseudo. Aeru UI-18 and 6.3 µg/mL with E. Coli Brig.

Consider `CC1(C)SC2C(NC(=O)C(NC(=O)c3c[nH]c4ccc(NC(=O)C5CCC(=O)N5)cc4c3=O)c3ccc(O)cc3)C(=O)N2C1C(=O)O` (centres unmarked) [N-[1,4-Dihydro-4-oxo-6[[(5-oxo-2-pyrrolidinyl)carbonyl]-amino]-3-quinolinylcarbonyl]amoxicillin], for which the “Minimal Inhibitory Concentration” value in the test with Entero C. IMM-11 came to 3.1 µg/mL; with Klebs. Pneu. MGH-2 it was 12.5 µg/mL; in the test on Serr. Mar. IMM-16 it was 6.3 µg/mL; in the test on Prot. Vulg. 1810, 1.6 µg/mL; in the test on E. Coli Vogel, 1.6 µg/mL; in the test with Pseudo. Aeru BRK, 3.1 µg/mL. The “Minimal Inhibitory Concentration” value was determined as 3.1 µg/mL in the test with Pseudo. Aeru 28, 1.6 µg/mL in the test on Staph Aureus UC-76, 1.6 µg/mL with Pseudo. Aeru UI-18 and 6.3 µg/mL in the test on E. Coli Brig.

As to `CC(=O)N1CC(O)CC1C(=O)Nc1ccc2[nH]c(=O)c(C(=O)NC(C(=O)NC3C(=O)N4C3SC(C)(C)C4C(=O)O)c3ccc(O)cc3)cc2c1` (centres unmarked) [N-[6-[[(1-Acetyl-4-hydroxy-2-pyrrolidinyl)carbonyl]-amino]-1,2-dihydro-2-oxo-3-quinolinylcarbonyl]amoxicillin], the “Minimal Inhibitory Concentration” value in the test on Entero C. IMM-11 worked out at 6.3 µg/mL; in the test on Klebs. Pneu. MGH-2, 25 µg/mL; in the test with Serr. Mar. IMM-16 it was 25 µg/mL; with Prot. Vulg. 1810, 3.1 µg/mL; in the test with E. Coli Vogel, 6.3 µg/mL; in the test with Pseudo. Aeru BRK it was 3.1 µg/mL. The “Minimal Inhibitory Concentration” value in the test with Pseudo. Aeru 28 worked out at 1.6 µg/mL; with Staph Aureus UC-76, 0.8 µg/mL; in the test with Pseudo. Aeru UI-18, 1.6 µg/mL; in the test on E. Coli Brig, 12.5 µg/mL.

In the case of `CC(=O)NC(C)C(=O)Nc1ccc2c(=O)c(C(=O)NC(C(=O)NC3C(=O)N4C3SC(C)(C)C4C(=O)O)c3ccc(O)cc3)c[nH]c2c1` (centres unmarked) [N-[7-[[2-(Acetylamino)-1-oxopropyl]amino]-1,4-dihydro-4-oxo-3-quinolinylcarbonyl]amoxicillin], the “Minimal Inhibitory Concentration” value in the test on Entero C. IMM-11 was determined as 3.1 µg/mL; in the test with Klebs. Pneu. MGH-2, 6.3 µg/mL; in the test on Serr. Mar. IMM-16, 6.3 µg/mL; in the test with Prot. Vulg. 1810, 0.8 µg/mL; in the test with E. Coli Vogel, 0.2 µg/mL; in the test on Pseudo. Aeru BRK, 1.6 µg/mL. Moreover, the “Minimal Inhibitory Concentration” value is 1.6 µg/mL with Pseudo. Aeru 28, 0.8 µg/mL in the test on Staph Aureus UC-76, “.6 µg/mL” with Pseudo. Aeru UI-18 and 3.1 µg/mL with E. Coli Brig.

With `CC(=O)N1CC(O)CC1C(=O)Nc1ccc2c(=O)c(C(=O)NC(C(=O)NC3C(=O)N4C3SC(C)(C)C4C(=O)O)c3ccc(O)cc3)c[nH]c2c1` (centres unmarked) [N-[7-[[(1-Acetyl-4-hydroxy-2-pyrrolidinyl)carbonyl]-amino]-1,4-dihydro-4-oxo-3-quinolinecarbonyl]amoxicillin], the “Minimal Inhibitory Concentration” value worked out at 6.3 µg/mL in the test with Entero C. IMM-11; 12.5 µg/mL in the test with Klebs. Pneu. MGH-2; 6.3 µg/mL with Serr. Mar. IMM-16; 0.8 µg/mL in the test with Prot. Vulg. 1810; 3.1 µg/mL in the test on E. Coli Vogel; 3.1 µg/mL in the test with Pseudo. Aeru BRK. Moreover, the “Minimal Inhibitory Concentration” value in the test on Pseudo. Aeru 28 worked out at 3.1 µg/mL; in the test with Staph Aureus UC-76 it was 1.6 µg/mL; with Pseudo. Aeru UI-18 it was 3.1 µg/mL; in the test with E. Coli Brig, 12.5 µg/mL.

As to `CC1(C)S[C@@H]2[C@H](NC(=O)[C@H](NC(=O)c3cc4cc(NC(=O)NCC(N)=O)ccc4[nH]c3=O)c3ccc(O)cc3)C(=O)N2[C@H]1C(=O)O` [N-[3-[1,2-dihydro-2-oxo-6-(5-oxo-2-pyrrolidinyl)amino]-quinolinylcarbonyl]amoxicillin], the “Minimal Inhibitory Concentration” value in the test on Entero C. IMM-11 was 3.1 µg/mL; in the test on Pseudo. Aeru BRK, 1.6 µg/mL; in the test on Pseudo. Aeru 28 it was 1.6 µg/mL; in the test with Staph Aureus UC-76, 1.6 µg/mL.

As to `CC(=O)N1CCCC1C(=O)Nc1ccc2[nH]c(=O)c(C(=O)NC(C(=O)NC3C(=O)N4C3SC(C)(C)C4C(=O)O)c3ccc(O)cc3)cc2c1` (centres unmarked) [N-[6-[[(1-Acetyl-2-pyrrolidinyl)carbonyl]amino]-1,2-dihydro-2-oxo-3-quinolinylcarbonyl]amoxicillin], the “Minimal Inhibitory Concentration” value in the test with Entero C. IMM-11 was 3.1 µg/mL; with Klebs. Pneu. MGH-2, 25 µg/mL; with Serr. Mar. IMM-16, 12.5 µg/mL; in the test on Prot. Vulg. 1810, 0.8 µg/mL; in the test with E. Coli Vogel, 0.2 µg/mL; in the test with Pseudo. Aeru BRK it was 1.6 µg/mL. Further, the “Minimal Inhibitory Concentration” value with Pseudo. Aeru 28 came out at 1.6 µg/mL; in the test with Staph Aureus UC-76, 0.8 µg/mL; in the test on Pseudo. Aeru UI-18, 1.6 µg/mL; with E. Coli Brig, 3.1 µg/mL.
